One test deals with T1, σ1 receptor (Cavia porcellus, UniProt Q60492).
T1 construct: from tissue; host or cells: guinea pig brain membranes
As to the kind of experiment: σ1 receptor binding assay, [3H]-(+)-pentazocine, guinea pig brain membranes. As for the experimental part:
(§1) The σ1 and σ2 receptor binding studies were performed according to the literature.[46],[47] Briefly, for the σ1 receptor binding assay, guinea pig brain membranes (400 μL, 500 μg protein) were incubated for 150 min at 37 °C with 3 nM of the radiolabeled ligand [^3H]-(+)-pentazocine (45 Ci/mmol) and increasing concentrations of tested compounds in 50 mM Tris-HCl (pH 7.4) to a total volume of 1 mL. […] Moreover, σ2 receptor binding assays were made according to the following protocol: the guinea pig brain membranes (300 μL, 360 μg protein) were incubated for 120 min at room temperature with 3 nM [^3H]-DTG (31 Ci/mmol) in the presence of 0.4 mM […] (+)-SKF10,047 to block the σ1 sites. The incubation was performed in 50 mM Tris-HCl (pH 8.0) to a total volume of 0.5 mL with increasing concentrations of each test compound. Nonspecific binding was evaluated in the presence of 5 μM DTG.
(§2) Each sample was filtered through Whatman GF/B glass fiber filters, which were presoaked for 1 h in a 0.5% poly(ethylenimine) solution, using a Millipore filter apparatus. Filters were washed twice with 4 mL of ice-cold buffer. Radioactivity was counted in 4 mL of “Ultima Gold MV” in a 1414 WinSpectral PerkinElmer Wallac or Beckman LS6500 scintillation counter. Inhibition constants (Ki values) were calculated using the EBDA/LIGAND program purchased from Elsevier/Biosoft.

In the next test the target is T2, σ2 receptor (Cavia porcellus, UniProt H0V073).
T2 construct: the guinea pig brain membranes (300 μL, 360 μg protein) were incubated for 120 min at room temperature with 3 nM [^3H]-DTG; from tissue; host or cells: guinea pig brain membranes
T2 sequence (H0V073 1-176): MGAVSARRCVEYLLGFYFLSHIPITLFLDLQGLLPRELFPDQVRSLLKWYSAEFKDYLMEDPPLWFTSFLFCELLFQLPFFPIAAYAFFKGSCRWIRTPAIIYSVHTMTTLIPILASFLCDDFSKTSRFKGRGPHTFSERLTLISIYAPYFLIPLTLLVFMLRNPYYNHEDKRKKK
As to the kind of experiment: σ2 receptor binding assay, [3H]-DTG, guinea pig brain membranes. The method, then: as §1, §2

In test [1] the test system is HREC. As to the kind of experiment: MTT viability test on HREC. Type of test: cell-based. To be noted: Homo sapiens. The method, then:
To dissect enantiomer contributions to antiangiogenic effects by (±)-1, compounds (+)-1 and (−)-1 were evaluated on HREC, an endothelial cell model of angiogenesis.[40] First, HREC viability was assessed by the 3-[4,5–dimethylthiazol-2-yl]-2,5-diphenyltetrazolium bromide (MTT) assay to verify the tolerability of the enantiomers, and different concentrations (1.0, 2.5, 5.0, 10.0, and 20.0 μM) of the compounds were tested for 24, 48, and 72 h. The IC50 values of (+)-1 and (−)-1 were calculated and compared to (±)-1 and its precursors (Table 3).
For cell viability assays, the 3-[4,5–dimethylthiazol-2-yl]-2,5-diphenyltetrazolium bromide (MTT assay, Chemicon, Temecula, CA) was used. The cells were seeded in 96-well plates at a density of 1.5 × 10^4 cells/well and were incubated overnight at 37 °C before the experiment. Afterward, the cells were treated for 24, 48, and 72 h in the presence of different concentrations (1.0, 2.5, 5.0, 10.0, 20.0 μM) of (±)-1, (+)-1, or (−)-1. After the treatments, the cells were incubated with MTT (5 mg/mL) for 3 h, and then 100 μL of dimethyl sulfoxide was added, and the absorbance was read in a plate reader (Synergy 2-BioTek) with a wavelength of 570 nm.
In general terms: Tetrazolium assays rely on reduction of a dye to a coloured formazan, in cell work by metabolically active cells.

The subject of test [2] is human 92-1 uveal melanoma cells. Description: Wound healing assay (cell migration) in human 92-1 uveal melanoma cells. To be noted: for effect on 92-1 cell migration: 3 μM, over 48 h time courses; for IC50: Homo sapiens, read-out: IC50, inhibition of 92-1 cell migration (wound healing). It counts as cell-based. As for the experimental part:
Finally, tumor cell migration was explored with the wound healing assay (Figure 7). (±)-1, (+)-1, and (−)-1 inhibited 92-1 cell migration over 48 h time courses (Figure 7A). […] In particular, the derivative (−)-1 exerted the highest antimigratory effects compared to the (+)-enantiomer (>10-fold) or the racemic mixture (±)-1 (>40-fold; Figure 7B). These actions closely mirror those observed in HREC migration (Figure 3) and could similarly reflect signaling through σ receptors by the HP-mII molecular component of the prodrugs, without VPA/HDAC involvement. Indeed, their differential potencies in motility inhibition (Figure 7) are aligned with increasing binding affinities for σ2 receptors from (±)-1 to (+)-1 and (−)-1 (Table 2), thus implicating the stereochemical diversity of HP-mII enantiomeric components as an underlying molecular mechanism able to regulate cell migration.
HREC and 92-1 cells (2.5 × 10^5 cells/well) were seeded into 24 well plates and grown to confluency. Confluent cell monolayers were scratched with a p200 pipet tip to create 1 mm wide wounds. After washing (three times) with PBS to remove cell debris, wounded monolayers were incubated for 48 h (37 °C) in the complete medium in the presence of the indicated treatments. HREC were treated for 48 h in the presence of (±)-1, (+)-1, or (−)-1 with or without VEGF-A (80 ng/mL), AC927, and PTZ. 92-1 cells were treated for 48 h in the presence of (±)-1, (+)-1, or (−)-1. Wound closure was monitored by photographs at 40X using a phase-contrast microscope in each culture condition and at each time point (0, 24, and 48 h for HREC and 0, 6, 24, 30, and 48 h for 92-1 cells). The numbers of cells toward the wounds were counted using ImageJ software (ImageJ 1.50e, National Institutes of Health, NIH, Bethesda, MD) and were quantified by measuring the distance traveled over time by both cell fronts into the wound area.

The test system of test [3] is HREC. To be noted: cited from earlier work.
Test [4] concerns VEGF-A-stimulated human retinal endothelial cells (HRECs). The arrangement: method as in PMID 27739690. To be noted: cited from earlier work.
Setting [5] is: 24 h, read-out: IC50, MTT viability test on HREC.
Setting [6] is: 24 h, read-out: pIC50 ± SE, MTT viability test on HREC (converted).
[7] abbreviates: 48 h, read-out: IC50, MTT viability test on HREC.
Where [8] appears, read: 48 h, read-out: pIC50 ± SE, MTT viability test on HREC (converted).
[9] abbreviates: 72 h, read-out: IC50, MTT viability test on HREC.
The mark [10] stands for this setting: 72 h, read-out: pIC50 ± SE, MTT viability test on HREC (converted).

We go through 3 compounds from paper PMC8474110 (Journal of Medicinal Chemistry, 2021).

Read-outs that look alike come from different tables or passages of the source.

T1 sequence (Q60492 whole entry): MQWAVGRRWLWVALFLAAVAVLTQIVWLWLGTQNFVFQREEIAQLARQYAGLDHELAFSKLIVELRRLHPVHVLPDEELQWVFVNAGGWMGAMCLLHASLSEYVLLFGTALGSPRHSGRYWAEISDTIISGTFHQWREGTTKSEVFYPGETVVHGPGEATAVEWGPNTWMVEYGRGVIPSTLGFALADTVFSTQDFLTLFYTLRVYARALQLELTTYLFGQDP

Usually Ki stands for the dissociation constant of the complex between target and ligand, obtained from inhibition or displacement. Higher therefore signals weaker binding. `CCCC(CCC)C(=O)O[C@@H](CCCN1CCC(O)(c2ccc(Cl)cc2)CC1)c1ccc(F)cc1` [(−)-1]: the inhibitory constant (Ki) at σ1 receptor worked out at 0.016 ± 0.0017 µM; at σ2 receptor, 0.056 ± 0.0064 µM. The IC50 in the test on HREC [1] (setting [5]) was 10.1 µM; in the test with HREC [1] (setting [6]), 10.7 µM; in the test with HREC [1] (setting [7]), 9 µM; in the test with HREC [1] (setting [8]) it was 9.12 µM; in the test on HREC [1] (setting [9]), 6.8 µM; in the test with HREC [1] (setting [10]) it was 6.92 µM. For the same compound, in test [2] (48 h), the IC50 worked out at 0.09 µM. Also, the “effect on 92-1 cell migration” value in test [2] is listed as “inhibited”. For the same compound, in test [2] (92-1 cells, 48 h), the “antimigratory effect compared to the (+)-enantiomer” value is on record as over 10 fold. Further, the “antimigratory effect compared to the racemic mixture (±)-1” value in test [2] (92-1 cells, 48 h) is over 40 fold.
As for `CCCC(CCC)C(=O)O[C@H](CCCN1CCC(O)(c2ccc(Cl)cc2)CC1)c1ccc(F)cc1` [(+)-1], the inhibitory constant (Ki) on σ1 receptor came out at 0.064 ± 0.0082 µM; at σ2 receptor, 0.074 ± 0.0089 µM. Moreover, the IC50 in the test with HREC [1] (setting [5]) was 9.8 µM; in the test on HREC [1] (setting [6]) it was 9.77 µM; with HREC [1] (setting [7]), 6.4 µM; with HREC [1] (setting [8]) it was 6.46 µM; with HREC [1] (setting [9]) it was 4.4 µM; in the test with HREC [1] (setting [10]), 4.47 µM. Further, the IC50 in test [2] (48 h) is 1.15 µM. Besides, in test [2], the “effect on 92-1 cell migration” value was “inhibited”.
Take `CCCC(CCC)C(=O)OC(CCCN1CCC(O)(c2ccc(Cl)cc2)CC1)c1ccc(F)cc1` (racemic) [(±)-1]: the “effect on 92-1 cell migration” value in test [2] was “inhibited”. Further, the IC50 in test [2] (48 h) worked out at 4.22 µM. Besides, the “pIC50 ± SE, MTT viability test on HREC” value with HREC [3] (24 h) is 4.98 ± 0.02; with HREC [3] (48 h), 4.95 ± 0.03; with HREC [3] (72 h), 4.99 ± 0.04. In test [4], the “reduction of cell migration and proliferation, times more than (±)-HP-mII” value is given as 20 times. Also, the “reduction of cell migration and proliferation, times more than VPA” value in test [4] is given as 120 times.
